Test system: Smad3-responsive luciferase reporter (SBE4-Luc)
Experimental: Human primary tubular cells (PromoCell GmbH, Heidelberg, Germany) were cultured in Renal Epithelial Cell Growth Medium-2 (Promocell GmbH) with supplements according to manufacturer's protocol human primary renal tubular epithelial cells with <5 passages were used for all studies. For HIV infection of hRTECs, pNL4-3:ΔG/P-EGFP, a gag/poi-deleted HIV-1 construct that contains EGFP in the gag open reading frame, and pHR-IRES-EGFP, a control EGFP construct, were used to generate the VSV-G pseudotyped virus. Cells were infected with HIV pseudotyped virus or control virus for 2 days before the treatment with test compound.
Renilla luciferase reporter plasmid (pRL) was purchased from Promega.
Forty-eight hours post-transfection cells were treated with assigned concentrations of test compound together with or without 10 ng/ml TGF-β1 for 16 hours. Luciferase activities were measured using the Dual-Luciferase Reporter Assay kit (Promega, #E1910). Data are expressed as the ratio of firefly luciferase activity over Renilla luciferase activity. […] 48 hours after transfection, luciferase activities were measured.

Compound	Luciferase Activity (Relative to DMSO control) −TGFβ
CCOC(=O)c1ccc(-c2noc(-c3cnc4cc(Cl)ccc4c3)n2)cc1 [Example 2]	0.660
COc1ccc2cc(-c3nc(-c4ccc(B5OC(C)(C)C(C)(C)O5)cc4)no3)cnc2c1 [Example 3, 5-(7-methoxyquinolin-3-yl)-3-(4-(4,4,5,5-tetramethyl-1,3,2-dioxaborolan-2-yl)phenyl)-1,2,4-oxadiazole]	0.730
COc1ccc2cc(-c3nc(-c4ccc([B-](F)(F)F)cc4)no3)cnc2c1 [Example 4]	0.366
CCOC(=O)c1ccc(-c2noc(-c3cnc4cc(Br)ccc4c3)n2)cc1 [Example 5, ethyl 4-(5-(7-bromoquinolin-3-yl)-1,2,4-oxadiazol-3-yl)benzoate]	0.512
CC1(C)OB(c2ccc3cc(-c4nc(-c5ccc(C(=O)O)cc5)no4)cnc3c2)OC1(C)C [Example 6, 4-(5-(7-(4,4,5,5-tetramethyl-1,3,2-dioxaborolan-2-yl)quinolin-3-yl)-1,2,4-oxadiazol-3-yl)benzoic acid]	0.722
COc1ccc2cc(-c3nc(-c4cccc(Br)n4)no3)cnc2c1 [Example 7]	0.784
CCOC(=O)c1ccc(-c2noc(-c3cnc4cc(B5OC(C)(C)C(C)(C)O5)ccc4c3)n2)cc1 [Example 8, ethyl 4-(5-(7-(4,4,5,5-tetramethyl-1,3,2-dioxaborolan-2-yl)quinolin-3-yl)-1,2,4-oxadiazol-3-yl)benzoate]	0.818

From patent US10669266B2, “Oxadiazole inhibitors of HIPK2 for treating kidney fibrosis” (ICAHN SCHOOL OF MEDICINE AT MOUNT SINAI, priority 2017, dated 2020)
